From ChEMBL document CHEMBL1201862, “PubChem BioAssay data set” (2004) come the findings set out here.

Each structure is given as a SMILES string.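 1) Cells in 96-well plates. 2) Compound, 48 h, 5 concentrations. 3) Linear interpolation between surrounding doses. 4) Unreached endpoint = highest concentration. GI50 = concentration required for 50% inhibition of growth.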 Active and inactive are the calls of the source. Cut-off read from the data, not from the text of the source: active = GI50 up to about 1.1 µM and inactive = higher.

Test systems include PC-3; MDA-MB-435; HOP-92; NCI-H23; T47D; UO-31; SK-MEL-5; HL-60; OVCAR-5; HCT-116; SNB-19; K562; IGROV-1; OVCAR-8; NCI-H460; RXF 393; HT-29; Hs-578T; RPMI-8226.
Test in all cases: inhibition of tumour cell growth, NCI panel, 48 h

With `CC1CNC(c2ccc(CN3CCC(CCCC4CCN(Cc5ccc(C6=NC(C)CN6)cc5)CC4)CC3)cc2)=N1` (centres undefined), the GI50 with PC-3 is 36.8 µM (inactive); in the assay on MDA-MB-435, 17.2 µM (inactive); in the assay on HOP-92 it was 26 µM (inactive); with NCI-H23, > 100 µM (inactive); in the assay with T47D, 50 µM (inactive); in the assay on UO-31 it was > 100 µM (inactive). In addition, the GI50 is > 100 µM (inactive) in the assay with SK-MEL-5; > 100 µM (inactive) with HL-60; 25.3 µM (inactive) with OVCAR-5; 29 µM (inactive) with HCT-116; 24.5 µM (inactive) in the assay with SNB-19; 35 µM (inactive) with K562. The GI50 is > 100 µM (inactive) in the assay on IGROV-1; 71.3 µM (inactive) in the assay on OVCAR-8; 18.5 µM (inactive) in the assay on NCI-H460; 27.4 µM (inactive) in the assay on RXF 393; 30.9 µM (inactive) in the assay on HT-29; > 100 µM (inactive) with Hs-578T.
With `N#CCCN(CCC#N)c1ccc(C(/N=N/c2ccccc2)=N\c2ccccc2)cc1`, the GI50 in the assay with PC-3, with MDA-MB-435, with HOP-92, in the assay with NCI-H23, with T47D and in the assay with UO-31 was > 100 µM (inactive) in each case. Moreover, the GI50 in the assay with SK-MEL-5, in the assay on OVCAR-5, in the assay with HCT-116, with SNB-19, in the assay with K562 and in the assay on IGROV-1 was > 100 µM (inactive) throughout. In addition, the GI50 in the assay with RPMI-8226, with OVCAR-8, with NCI-H460, with RXF 393, with HT-29 and in the assay with Hs-578T was > 100 µM (inactive) each time.
On to `C[C@@H]1C[C@H]2[C@@H]3CCC4=CC(=O)C=C[C@]4(C)[C@@]3(Cl)[C@@H](Cl)C[C@]2(C)[C@@]1(O)C(=O)COP(=O)(O)O`, for which the GI50 in the assay with PC-3, in the assay on MDA-MB-435, with HOP-92, with NCI-H23, in the assay on T47D and with UO-31 was > 100 µM (inactive) throughout. In addition, the GI50 with SK-MEL-5 was > 100 µM (inactive); with OVCAR-5, > 100 µM (inactive); with HCT-116, 89.3 µM (inactive); in the assay with SNB-19 it was > 100 µM (inactive); in the assay with K562 it was 7.41 µM (inactive); with IGROV-1, > 100 µM (inactive). Further, the GI50 is 0.0128 µM (active) with RPMI-8226; > 100 µM (inactive) in the assay with OVCAR-8; > 100 µM (inactive) in the assay with RXF 393; > 100 µM (inactive) in the assay with HT-29; > 100 µM (inactive) with Hs-578T.
For `COc1ccc2c(c1)CCc1c-2n(CCN2CCCCC2)c2ccc(OC)cc12`, the GI50 in the assay on PC-3 is > 100 µM (inactive); in the assay with MDA-MB-435, > 100 µM (inactive); with HOP-92, > 10 µM (inactive); with NCI-H23, > 100 µM (inactive); with T47D, > 100 µM (inactive); in the assay on UO-31, > 100 µM (inactive). In addition, the GI50 in the assay on SK-MEL-5 was > 100 µM (inactive); in the assay on OVCAR-5, > 100 µM (inactive); with HCT-116, > 100 µM (inactive); in the assay on SNB-19 it was > 100 µM (inactive); in the assay with K562, 78.7 µM (inactive); with IGROV-1 it was > 100 µM (inactive). In addition, the GI50 is > 100 µM (inactive) in the assay with RPMI-8226; 92 µM (inactive) in the assay on OVCAR-8; > 100 µM (inactive) in the assay with NCI-H460; 9.12 µM (inactive) in the assay with HT-29; > 100 µM (inactive) in the assay with Hs-578T.
With `Cc1ccc(-c2cc(-c3ccc(Cl)cc3)nc(/N=C3\C(=O)N(CN(C)C)c4ccccc43)n2)cc1`, the GI50 in the assay on PC-3 is 50.9 µM (inactive); in the assay on MDA-MB-435 it was 17.1 µM (inactive); in the assay with HOP-92 it was 98.9 µM (inactive); in the assay with NCI-H23, 33.6 µM (inactive); in the assay with T47D it was 28.8 µM (inactive); in the assay with UO-31, 90.8 µM (inactive). Besides, the GI50 with SK-MEL-5 was 48.4 µM (inactive); in the assay with HL-60, 7.89 µM (inactive); with OVCAR-5, > 100 µM (inactive); in the assay on HCT-116 it was 64 µM (inactive); with SNB-19 it was > 100 µM (inactive); in the assay with K562, 27.3 µM (inactive). The GI50 with IGROV-1 was 53.5 µM (inactive); with OVCAR-8, 58.9 µM (inactive); with NCI-H460, 39.9 µM (inactive); in the assay with RXF 393, 22.3 µM (inactive); in the assay on HT-29 it was 46.1 µM (inactive); in the assay with Hs-578T, 54.8 µM (inactive).
As for `CC(C)C12CCC3(CCC4C(C)(C(=O)O)CCCC4(C)C3C1)C(CN)C2` (centres undefined), the GI50 in the assay on PC-3 was 45.6 µM (inactive); in the assay with MDA-MB-435, 37.7 µM (inactive); in the assay with HOP-92, 55.6 µM (inactive); in the assay with NCI-H23, 25.6 µM (inactive); in the assay with T47D it was 55.2 µM (inactive); in the assay with UO-31, 40.4 µM (inactive). The GI50 with SK-MEL-5 is 27.7 µM (inactive); in the assay with OVCAR-5, 42.3 µM (inactive); with HCT-116 it was 17.3 µM (inactive); in the assay on SNB-19, 39 µM (inactive); in the assay on IGROV-1, 53.2 µM (inactive); with RPMI-8226 it was 19.3 µM (inactive). Further, the GI50 was 30.7 µM (inactive) in the assay with OVCAR-8; 21.5 µM (inactive) with NCI-H460; 35.2 µM (inactive) in the assay on RXF 393; 23.4 µM (inactive) in the assay with HT-29; 62.8 µM (inactive) in the assay on Hs-578T.
As to `CC1(C)CC(=O)c2c(nc3c4c([nH]c(-c5ccc(Br)cc5)c24)CC(C)(C)C3)C1`, the GI50 in the assay on PC-3 was 22.4 µM (inactive); with MDA-MB-435 it was 29.7 µM (inactive); in the assay on HOP-92, 28.7 µM (inactive); with NCI-H23, 52.1 µM (inactive); in the assay with T47D, 23.2 µM (inactive); with UO-31, 45.1 µM (inactive). Moreover, the GI50 in the assay with SK-MEL-5 was 26.8 µM (inactive); in the assay with HL-60, 43.3 µM (inactive); with OVCAR-5 it was 84.9 µM (inactive); with HCT-116 it was 36.3 µM (inactive); in the assay on SNB-19, 70.3 µM (inactive); in the assay with K562 it was 18.2 µM (inactive). Also, the GI50 with OVCAR-8 was 49.8 µM (inactive); with NCI-H460, 37.8 µM (inactive); in the assay with RXF 393, 22.8 µM (inactive); in the assay on HT-29, 4.79 µM (inactive); in the assay with Hs-578T it was 33 µM (inactive).
As to `C(=N\c1ccc(-c2nc3ccccc3s2)cc1)/c1ccco1`, the GI50 was 32.5 µM (inactive) in the assay on PC-3; 64.3 µM (inactive) with MDA-MB-435; 39.5 µM (inactive) in the assay with HOP-92; 70.6 µM (inactive) in the assay with NCI-H23; 41.6 µM (inactive) with T47D; 62.4 µM (inactive) with UO-31. Besides, the GI50 in the assay with SK-MEL-5 is 33.5 µM (inactive); in the assay on OVCAR-5, > 100 µM (inactive); in the assay on HCT-116, 82 µM (inactive); with SNB-19 it was > 100 µM (inactive); in the assay on K562, 41.3 µM (inactive); in the assay with IGROV-1, 58.1 µM (inactive). Further, the GI50 in the assay on RPMI-8226 was 41.6 µM (inactive); in the assay with OVCAR-8 it was 64.9 µM (inactive); in the assay on NCI-H460, 40.3 µM (inactive); with RXF 393, 55.7 µM (inactive); with HT-29, 70 µM (inactive); in the assay on Hs-578T, > 100 µM (inactive).
Turning to `COC(=O)[C@@H]1COC(=O)N1`, the GI50 in the assay on PC-3, in the assay on MDA-MB-435, with HOP-92, with NCI-H23, in the assay with T47D and in the assay with UO-31 was > 100 µM (inactive) each time. Further, the GI50 with SK-MEL-5, in the assay on HL-60, with OVCAR-5, with HCT-116, with SNB-19 and in the assay with K562 was > 100 µM (inactive) each time. In addition, the GI50 in the assay on IGROV-1, in the assay with OVCAR-8, with NCI-H460, with RXF 393, in the assay with HT-29 and in the assay with Hs-578T was > 100 µM (inactive) throughout.
Regarding `NC1=CN(Cc2ccccc2)C2=N/C(=C\c3ccco3)C(=O)N12`, the GI50 in the assay with PC-3, with MDA-MB-435, in the assay on HOP-92, in the assay with NCI-H23, with T47D and in the assay with UO-31 was > 100 µM (inactive) in each case. The GI50 in the assay on SK-MEL-5, in the assay with HL-60, in the assay on OVCAR-5, with HCT-116, with SNB-19 and with K562 was > 100 µM (inactive) each time. The GI50 in the assay with IGROV-1, in the assay on OVCAR-8, in the assay with NCI-H460, in the assay on RXF 393, with HT-29 and in the assay on Hs-578T was > 100 µM (inactive) throughout.
With `C[N+]1(C)CC[N+](C)(C)[BH-]1C(O)O`, the GI50 in the assay on PC-3, with MDA-MB-435, in the assay on HOP-92, in the assay on NCI-H23, in the assay on T47D and in the assay on UO-31 was > 100 µM (inactive) in each case. The GI50 in the assay with SK-MEL-5, in the assay on HL-60, with OVCAR-5, in the assay on HCT-116, in the assay on SNB-19 and in the assay with K562 was > 100 µM (inactive) in each case. The GI50 in the assay on IGROV-1, in the assay with OVCAR-8, in the assay with NCI-H460, in the assay on RXF 393, in the assay with HT-29 and in the assay on Hs-578T was > 100 µM (inactive) each time.
